Data from patent publication US5789395A, “Method of using tetracycline compounds for inhibition of endogenous nitric oxide production” (The Research Foundation of State University of New York, priority 1996, dated 1998).
Entries after “also recorded” stand apart in the source; their conditions may differ.

Legend:
[1] = tested on: gelatinase in UMR 106-01 osteoblastic cell line; conditions: Vernillo et al. 1993; cited from earlier work
[2] = tested on: collagenase; conditions: cited from earlier work
[3] = tested on: cartilage; conditions: 20-50 μg/mL; Cole et al. 1994; cited from earlier work
[4] = tested on: iNOS mRNA; test: iNOS mRNA expression in LPS-stimulated RAW 264.7 cells (RT-PCR); format: cell-based, murine; conditions: 20-40 μg/mL
Experimental: Doxycycline and minocycline may suppress iNOS before the synthesis of the enzyme, leading to inhibition of iNOS protein expression, specific activity and accumulation of nitrite. […] Therefore, to determine the level at which tetracycline inhibited iNOS protein expression, RAW 264.7 cells treated with LPS in the presence or absence of doxycycline and minocycline were analyzed for iNOS mRNA by semi-quantitative RT-PCR.
The presence of iNOS and β-actin mRNA in cells was analyzed by reverse transcription (RT) of total RNA followed by PCR amplification of the cDNA. The sense and antisense oligonucleotides for iNOS were, respectively, 5'-ACGGAGAAGCTTAGATCTGGAGCAGAAGTG-3'(142 to 171) (SEQ ID NO:1) and 5'-CTGCAGGTTGGACCACTGGATCCTGCCGAT-3' (767 to 796) (SEQ ID NO:2). The sense and antisense primers for β-actin were 5'-TCCTTCGTTGCCGGTCCACA-3' (44 to 63) (SEQ ID NO:3) and 5'-CGTCTCCGGAGTCCATCACA-3' (534 to 552) (SEQ ID NO:4), respectively. The predicted PCR product of the iNOS cDNA was 654 bp; that of the β-actin cDNA was 508 bp. The polymerase chain reaction was carried out in an automated DNA thermal cycle (Perkin-Elmer Cetus, Norwalk, Conn.). The total RNA was extracted using TRI-Reagent (MRC Inc., Cincinnati, Ohio). The cDNA was prepared from equal amounts (1-5 μg) of total RNA using a SuperScript™ RNase H Reverse Transcriptase (Gibco BRL, Gaithersburg, Md.). An equal amount of the cDNA was used to amplify the mRNA by PCR. PCR amplification was performed in 50 μL solution containing 1.5 mM MgCl2, 500 ng iNOS primer, 100 ng β-actin primer, 0.2 mM of each dNTP, 2.5 units of Taq DNA polymerase (Gibco). The cycle conditions for amplification of cDNA were 1 min at 94° C., 1-2 min at 55° C. and 3 min at 72° C. for 30 cycles for both iNOS and β-actin. The PCR product was analyzed by electrophoresis on 1.0% agarose gels.
RT-PCR analysis of iNOS and βactin mRNA expression in RAW 264.7 cells was carried out after stimulation with LPS±doxycycline or minocycline. […] Equal amounts of RNA were analyzed for iNOS and β-actin expression as described above.

[5] = target: T1, iNOS (Mus musculus, UniProt P29477); test: direct effect on specific activity of iNOS in cell-free extracts (L-arginine-to-L-citrulline conversion); format: biochemical, murine; conditions: for effect on the specific activity of iNOS in cell-free extracts: 20-80 μg/mL, 15 min preincubation; for effect on an ongoing L-arginine-to-L-citrulline reaction catalyzed by iNOS: cell-free extracts
T1 construct: prepared cell-free extracts as a source of iNOS enzyme; (cells); host or cells: RAW 264.7 murine macrophages, LPS-stimulated
Experimental: To evaluate the direct effect of doxycycline and minocycline on iNOS activity, we induced RAW 264.7 cells with LPS for 16 h in the absence of these agents and prepared cell-free extracts as a source of iNOS enzyme in the L-arginine-to-L-citrulline conversion assay.
Separate aliquots of the enzyme-containing cell-free extracts were preincubated for 15 min with 20-80 μg/ mL doxycycline, 20-80 μg/mL minocycline, 1 mM N-acetylimidazole and 200 μM L-NMMA, respectively, before the enzyme reaction was initiated by adding the co-factors. Various modulators including methanol (MeOH), the carrier for NAI (N-acetylimidazole), were added 15 min prior to the addition of the co-factors to initiate the iNOS reaction, as described. The specific activity was calculated and percent inhibition was compare to the original LPS-stimulated extract; 100% specific activity was 200 pmol citrulline/min/mg protein. The data shown in FIG. 4 represent one of two similar experiments.

[6] = tested on: dog models of OA; conditions: prophylactic administration; Yu et al. (1992); cited from earlier work
[7] = tested on: gelatinase in ROS 17/2.8 osteoblastic cell line; conditions: Vernillo et al. 1993; cited from earlier work
[8] = tested on: iNOS mRNA; test: iNOS mRNA expression in LPS-stimulated RAW cells (Northern blot); format: cell-based, murine; conditions: Mus musculus, normalized against β-actin; for inhibition at 20 µg/mL: 20 μg/mL; for inhibition at 40 µg/mL: 40 μg/mL; for inhibition at 80 µg/mL: 80 μg/mL
Experimental: Northern blot analysis of the iNOS MRNA expressed by the cells was then carried out to evaluate precisely the effect of iNOS expression in the presence of doxycycline and minocycline. The probes again were the iNOS and β-actin CDNA probes described above.
In this case, total RNA was isolated using TRI Reagent (MRC Inc., Cincinnati, Ohio). […] Briefly, 30 μg of RNA was subjected to electrophoresis in 1% agarose formaldehyde gel. The gel was then transferred via capillary action onto a nylon membrane (Zeta Probe, Bio-Rad Laboratories, Melville, N.Y.). The membrane was hybridized with [^32 P]-dCTP-labeled iNOS CDNA (4 kb SmaI fragment), a kind gift from Dr. James Cunningham (Harvard Medical School, Boston, Mass.). After hybridization, the blot was exposed to Kodak X-ray film (Kodak, Rochester, N.Y.) for 24-48 h with intensifying screens at -70° C. The β-actin probe was purchased from ClonTech (Palo Alto, Calif.) and probed as described above. Quantitation of the intensity of the iNOS/β-actin bands was performed using a phosphoimager (Molecular Dynamics, Sunnyvale, Calif.).

[9] = tested on: patients with mild and moderate arthritis; conditions: Tilley et al. 1995; cited from earlier work

In the case of C[C@H]1c2cccc(O)c2C(O)=C2C(=O)[C@]3(O)C(O)=C(C(N)=O)C(=O)[C@@H](N(C)C)[C@@H]3[C@@H](O)[C@@H]21 [doxycycline], the “IC50, gelatinase activity” value [1] is given as > 200 µg/mL, the anti-collagenase activity [2] is given as “inhibits collagenase activity via direct effects on the enzyme” and the “effect on proteoglycan loss and cell death” value [3] is given as “blocks proteoglycan loss and reduces the cell death associated with proteoglycan loss”. For the same molecule, the “decrease of iNOS mRNA expression” value [4] was > 50%, the “effect on the specific activity of iNOS in cell-free extracts” value [5] was “minimal effect; also recorded: no significant effect” and the “effect on an ongoing L-arginine-to-L-citrulline reaction catalyzed by iNOS” value [5] was “could not block”. For the same molecule, the “severity of OA” value [6] was “markedly reduced the severity of OA”, the “IC50, gelatinase activity” value [7] was 20 to 30 µg/mL and the inhibition at 20 µg/mL [8] was 68%. For the same molecule, the inhibition at 40 µg/mL [8] was 75% and the inhibition at 80 µg/mL [8] was 79%.
For CN(C)c1ccc(O)c2c1C[C@H]1C[C@H]3[C@H](N(C)C)C(O)=C(C(N)=O)C(=O)[C@@]3(O)C(O)=C1C2=O [minocycline], the “safety and efficacy in arthritis” value [9] is given as “safe and effective for patients with mild and moderate arthritis”, the “decrease of iNOS mRNA expression” value [4] is given as > 50% and the “effect on the specific activity of iNOS in cell-free extracts” value [5] is given as “minimal effect; also recorded: no significant effect”. The “effect on an ongoing L-arginine-to-L-citrulline reaction catalyzed by iNOS” value [5] was “could not block”, the inhibition at 20 µg/mL [8] was 39% and the inhibition at 40 µg/mL [8] was 49%. The inhibition at 80 µg/mL [8] was 77%.
